Data on four compounds can be found in patent US8580816B2, “Carboxylic acid derivatives having an oxazolo[5,4-b]pyridine ring” (Sanofi, priority 2011, dated 2013).

This assay addresses T1, human Edg 1 receptor (Homo sapiens, UniProt P21453).
T1 construct: FLAG (N); expressed in transfected cells
In words: GTP-γ-S assay using human Edg 1 receptors (scintillation proximity assay, CHO Flp-In membrane preparation). In kind it is biochemical. The note with it: test compound at 10 μM; relative to high control 10 μM S1P = 100% activation; membranes of CHO Flp-In cells overexpressing human Edg 1; triplicate. The text has this:
A) GTP-γ-S Assay Using Human Edg 1 Receptors
In order to determine the Edg 1 receptor activation by the compounds of the invention, a GTP-γ-S ((GTP-γ-S=guanosine 5′-[thio]triphosphate) assay for G-protein coupled receptor binding based on the scintillation proximity assay principle was used, employing a cell membrane preparation from a CHO Flp-In cell line which constitutively overexpresses the human Edg 1 receptor.
A membrane preparation was obtained by standard methods from the afore-described CHO Flp-In cell line constitutively overexpressing the human Edg 1 receptor. Briefly, the cryopreserved cells were taken in culture and grown until confluency in T175 cell culture flasks (Becton Dickinson, cat. no. 35 5001). Cell culture was stopped by washing with calcium-free phosphate-buffered saline (PBS; Gibco, cat. no. 14190), and cells were harvested with a rubber-policeman in 4° C. cold and calcium-free PBS supplemented with a protease inhibitor cocktail (complete protease inhibitor; Roche, cat. no. 1697498; 1 tablet per 50 ml) and subsequently centrifuged at 4° C. for 15 min at 1100×g (Heraeus Minifuge T). For cell lysis, the pellet was resuspended in a 4° C. cold hypotonic buffer consisting of 5 mM HEPES (Sigma-Aldrich, cat. no. H-0981), 1 mM EDTA (disodium salt; Merck, cat. No. 8418) supplemented with protease inhibitor cocktail (as above) in which cells were stored for another 15 min on ice. After lysis, cells were centrifuged at 4° C. for 10 min at 400×g (Heraeus Minifuge T). The pellet was disrupted in a Dounce homogenizer, diluted with the supernatant of the previous centrifugation and subsequently centrifuged at 4° C. for 10 min at 500×g (Heraeus Minifuge T) in order to separate nuclei and still intact cells from the membranes mainly present in the supernatant. The supernatant was then diluted in hypotonic buffer and centrifuged (Beckmann, Avanti J251) at approximately 18 600×g for 2 h at 4° C. After centrifugation, the membrane pellet was resuspended in a storing buffer consisting of 20 mM HEPES; 150 mM NaCl (Merck, cat. no. 6400), 1 mM EDTA (as above) supplemented with protease inhibitor cocktail (as above). […] Protein concentration of the membrane preparation was determined in a sample by means of a commercial protein assay (Bio-Rad, DC Protein Assay, cat. nos. 500-0113, 500-0114, 500-0115).
The Edg 1 membrane preparation obtained in (b) was employed in a commercially available scintillation proximity assay (SPA) kit for G-protein coupled receptor binding from Amersham Biosciences/GE Healthcare (code RPNQ0210), in which ligand-induced binding of ^35S-radiolabeled GTP-γ-S to the receptor-containing membrane, which is bound to scintillation beads, stimulates the emission of light and allows to quantify the in vitro activity of the Edg 1 agonistic compound. […]
(In general: Scintillation proximity formats need no separation of bound from free tracer.)

T1 sequence (P21453 whole entry): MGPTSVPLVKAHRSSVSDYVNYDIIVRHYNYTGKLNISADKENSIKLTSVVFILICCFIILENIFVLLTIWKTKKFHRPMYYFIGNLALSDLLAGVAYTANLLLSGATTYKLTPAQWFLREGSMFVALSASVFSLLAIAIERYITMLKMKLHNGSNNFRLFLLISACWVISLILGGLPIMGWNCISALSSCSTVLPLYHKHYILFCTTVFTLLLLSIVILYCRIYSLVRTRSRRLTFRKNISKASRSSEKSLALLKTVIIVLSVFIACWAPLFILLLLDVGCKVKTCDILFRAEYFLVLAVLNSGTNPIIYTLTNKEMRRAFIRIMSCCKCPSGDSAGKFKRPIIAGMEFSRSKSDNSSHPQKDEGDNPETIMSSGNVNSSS

For the compound `Cc1cc(-c2nc3ccc(Oc4ccccc4F)nc3o2)cc(C)c1OCC(=O)O` [Example 1, {4-[5-(2-Fluorophenoxy)oxazolo[5,4-b]pyridin-2-yl]-2,6-dimethylphenoxy}acetic acid], the “Edg 1 receptor activation in percent of the activation by 10 μM S1P (% activation)” value is 74%.

For `Cc1cc(-c2nc3ccc(Oc4ccccc4F)nc3o2)cc(C)c1OCC(C)(C)C(=O)O` [Example 4, 3-{4-[5-(2-Fluorophenoxy)oxazolo[5,4-b]pyridin-2-yl]-2,6-dimethylphenoxy}-2,2-dimethylpropionic acid], the “Edg 1 receptor activation in percent of the activation by 10 μM S1P (% activation)” value stood at 86%.

Consider `Cc1cc(-c2nc3ccc(Oc4ccccc4F)nc3o2)cc(C)c1OC(C)(C)C(=O)O` [Example 3, 2-{4-[5-(2-Fluorophenoxy)oxazolo[5,4-b]pyridin-2-yl]-2,6-dimethylphenoxy}-2-methylpropionic acid], for which the “Edg 1 receptor activation in percent of the activation by 10 μM S1P (% activation)” value stood at 39%.

As for `Cc1cc(-c2nc3ccc(Oc4ccccc4F)nc3o2)cc(C)c1OC(C)C(=O)O` (stereo not shown) [Example 2, 2-{4-[5-(2-Fluorophenoxy)oxazolo[5,4-b]pyridin-2-yl]-2,6-dimethylphenoxy}propionic acid], the “Edg 1 receptor activation in percent of the activation by 10 μM S1P (% activation)” value is on record as 51%.
